A short description of series [1]: Acid hydrolysis of compound assessed as retention time at 2 mg after 6 hrs by RP-HPLC method. It is filed as physicochemical.
Series [2] has as its system HUVEC. Description: Inhibition of LPS-induced hyperpermeability in HUVEC cells for 6 hrs pretreated with LPS for 4 hrs by evans blue dye flux based immunofluorescence analysis. Type of series: functional, cell-based. The note with it: Homo sapiens.
In series [3] the test system is HUVEC. Description: Inhibition of LPS-induced hyperpermeability in HUVEC cells assessed as permeability at 20 uM for 6 hrs pretreated with LPS for 4 hrs by evans blue dye flux based immunofluorescence analysis (reference value: 100%). Type of series: functional, Homo sapiens. Also on record: scale not given: the % may be the effect or the level left.
Series [4] concerns HUVEC. Description: Cytotoxicity against HUVEC cells assessed as permeability at 2.5 to 20 uM after 6 hrs by evans blue dye flux based immunofluorescence analysis. Type of series: cell-based. Conditions: human.
In series [5] the test system is HUVEC. Description: Inhibition of LPS-induced neutrophil adhesion in HUVEC cells for 6 hrs pretreated with LPS for 4 hrs by fluorescence microplate reader assay. It is filed as functional, cell-based. The note with it: Homo sapiens.
Series [6] has as its system HUVEC. The series can be described thus: Inhibition of LPS-induced neutrophil adhesion in HUVEC cells assessed as neutrophil adhesion to cell monolayer at 20 uM for 6 hrs pretreated with LPS for 4 hrs by fluorescence microplate reader assay (reference value: 86%). Type of series: functional, Homo sapiens. Further details: scale not given: the % may be the effect or the level left.

Series [7] concerns HUVEC. The series can be described thus: Cytotoxicity against HUVEC cells assessed as neutrophil adhesion at 2.5 to 20 uM after 6 hrs by fluorescence microplate reader assay. It is filed as cell-based. Conditions: human.
Series [8] concerns HUVEC. The series can be described thus: Inhibition of LPS-induced neutrophil migration in HUVEC cells for 6 hrs pretreated with LPS for 4 hrs. Type of series: functional, cell-based. The note with it: Homo sapiens.
The test system of series [9] is HUVEC. Description: Inhibition of LPS-induced neutrophil migration in HUVEC cells assessed as migration index at 20 uM for 6 hrs pretreated with LPS for 4 hrs (reference value: 155). It is filed as functional, Homo sapiens.
For series [10], the system named is HUVEC. Description: Cytotoxicity against HUVEC cells assessed as neutrophil migration at 2.5 to 20 uM after 6 hrs. Type of series: cell-based. Conditions: human.

On to `O=Cc1ccc(O[C@@H]2O[C@H](COC(=O)/C=C/c3ccc(O)c(O)c3)[C@@H](O)[C@H](O)[C@H]2O)cc1`, for which, in series [1], the Retention_time was 28.1 min. Moreover, the inhibition entry with HUVEC [2], in the series on HUVEC [5] and in the series on HUVEC [8] was “Dose-dependent effect” each time. Also, the Activity with HUVEC [3] is 73%; with HUVEC [4] it was “Non-toxic”; with HUVEC [6], 30%; with HUVEC [7], “Non-toxic”; in the series with HUVEC [10], “Non-toxic”. Besides, the Activity_index in the series with HUVEC [9] is 75.

In the case of `O=c1cc(-c2ccc(O)c(O)c2)oc2c([C@@H]3O[C@H](CO)[C@@H](O)[C@H](O)[C@H]3O)c(O)cc(O)c12` [ORIENTIN], the Activity with HUVEC [3] is listed as 71%; with HUVEC [6] it was 41%. Moreover, in the series with HUVEC [8], the inhibition result is “Dose-dependent effect”. For the same compound, the Activity_index in the series on HUVEC [9] is listed as 73.

Turning to `O=Cc1ccc(O[C@@H]2O[C@H](CO)[C@@H](OC(=O)/C=C/c3ccc(O)c(O)c3)[C@H](O)[C@H]2O)cc1`, the inhibition entry with HUVEC [2], with HUVEC [5] and with HUVEC [8] was “Dose-dependent effect” in each case. The Activity with HUVEC [3] is reported as 58%; in the series on HUVEC [4], “Non-toxic”; in the series on HUVEC [6] it was 33%; with HUVEC [7], “Non-toxic”; in the series on HUVEC [10] it was “Non-toxic”. In the series with HUVEC [9], the Activity_index came out at 74.

With `O=C(/C=C/c1ccc(O)c(O)c1)OCc1ccc(O[C@@H]2O[C@H](CO)[C@@H](O)[C@H](O)[C@H]2O)cc1`, the Activity with HUVEC [6] turned out to be 73%. The Activity_index with HUVEC [9] stood at 142.

These data come from ChEMBL document CHEMBL3627715, “Caffeoyl glucosides from Nandina domestica inhibit LPS-induced endothelial inflammatory responses” (Bioorg Med Chem Lett, 2015).
